According to patent US4293489A, “Derivatives of A-30912A nucleus” (Eli Lilly and Company, priority 1980, dated 1981):
Starred links: 1 amine or outer side, 2 acyl side, 3 side chain; linkers in the order of their positions; H or OH if unused. Positions of bridges follow the written chain, without caps; N, C: chain ends. Non-standard residues stand in square brackets, D forms with d. Residues, ends and D or L forms follow the SMILES beside them. *: point of attachment. Orn(4R-OH,5R-OH) = O=C([C@H](C[C@@H](O)[C@@H](O)N[*:3])N[*:1])[*:2]; hTyr(3S-OH,4S-OH) = N[C@H](C(=O)O)[C@H](O)[C@@H](O)c1ccc(O)cc1; Benzoyl(4-OC10H21) = CCCCCCCCCCOc1ccc(C(=O)*)cc1; Pro(3S-OH,4S-Me) = C[C@H]1CN[C@H](C(=O)O)[C@H]1O; Benzoyl(4-octyloxy) = CCCCCCCCOc1ccc(C(=O)*)cc1; X2 = CCCCCCCCCCCCCCS(=O)(=O)c1ccc(C(=O)*)cc1; X5 = CCCCCCCCCCCCS(=O)(=O)c1ccc(C(=O)*)cc1; X4 = CCCCCCCCCCS(=O)(=O)c1ccc(C(=O)*)cc1; X23 = CCCCCCCCS(=O)(=O)c1ccc(C(=O)*)cc1; X22 = CCCCCCCCCCCCOc1ccc(CCC(=O)*)cc1; X18 = CCCCCCCCCCCCOc1ccc(CC(=O)*)cc1; X1 = CCCCCCCCCCCCSc1ccc(C(=O)*)cc1; X21 = CCCCCCCCOc1ccc(CCC(=O)*)cc1; Hyp = O=C(O)[C@@H]1C[C@@H](O)CN1; X15 = CCCCCCCCOc1cccc(CC(=O)*)c1; X14 = CCCCCCOc1ccc(C(=O)*)cc1; X17 = CCCCOc1ccc(CCC(=O)*)cc1

What was measured:
Candida albicans A-26 [1] = assay: Agar plate disc diffusion test, MIC per disc; assay type: cell-based; details: 0.1M sodium borate, pH 7.5, 24 hours, 30° C.
Description: (§1) Tables 10 and 11 give the results of the testing in vitro of the compounds of Examples 3 and 4 by agar-plate disc-diffusion methods. In Table 10 activity is measured by the size (diameter in mm) of the observed zone of inhibition of the microorganism produced by the test compound. In Table 11, activity is measured by the minimal inhibitory concentration (MIC) of the substance (μg/disc) required to inhibit growth of the test organism. Table 12 gives the results of the testing in vitro of the p-(n-octyloxy)benzoyl derivative of A30912A nucleus [Formula III, R^1 is p-(n-octyloxy)benzoyl] against five strains of Candida albicans by the agar dilution method. In Table 12 activity is measured by the minimal inhibitory concentration (MIC) of the substance (μg/ml) required to inhibit the test organism.
(§2) ^(a) Compounds were suspended in 0.1M sodium borate solution, pH 7.5.
(§3) The compounds were tested at 20 μg/disc at top level and at twofold
(§4) dilutions until end points were reached. Incubation: 24 hours; 30°

[2] = tested on: Trychophyton mentagrophyes #6; assay: Agar plate disc diffusion test, MIC per disc; assay type: cell-based, Trichophyton mentagrophytes; details: 0.1M sodium borate, pH 7.5, 24 hours, 30° C., * measurable zones with regrowth of organism around disc
Description: as §1, §2, §3, §4
*Measurable zones of inhibition with regrowth of organism around disc.

Candida albicans A-26 [3] = assay: Therapeutic activity against Candida albicans A-26 infection in mice, ED50; assay type: in vivo; details: Candida albicans, A26, sc, doses 0, 4 and 24 hours post infection, increase in survival time vs control, Reed-Muench, read-out: ED50
Description: The results of in vivo tests to evaluate the effectiveness of the compounds of Examples 3 and 4 against an infection caused by Candida albicans A-26 in mice are given in Table 13, where activity is measured by the ED50 value (the dose in mg/kg. required to cure 50% of the test animals). In a separate test, the results of which are also summarized in Table 13, activity is indicated by the lowest dose at which a significant anti-fungal effect is observed. In this test, groups of male albino mice (specific pathogen free), weighing 18 to 20 grams, are infected intravenously with Candida albicans A-26. The animals are X-irradiated 24 hours prior to infection at about 50 roentgens per minute for 8 minutes (400 total dose) to reduce immune responses to the infecting organism. At 0, 4, and 24 hours post infection each group of mice is given graded doses subcutaneously of the test compound as a suspension in 33% polyethylene glycol (PEG)-water. The day of death for each animal is recorded.
*Dosage Schedules: A. = 40, 20, 15 and 10 mg/kg; Dosages given 0, 4, and
24 hours post injection as suspension of test compound in 30% PEGH2
O. Number of mice receiving test compounds at each dosage level: 6 mice
per group. Number of mice in control (untreated) group: 10 mice per group
**As measured by increase in survival time of treated animals versus
control, calculated by method of Reed v Mueuch, American J. Hygiene, 27,

CCCCCCCCOc1ccc(C(=O)N[C@H]2C[C@@H](O)[C@@H](O)NC(=O)[C@@H]3[C@@H](O)[C@@H](C)CN3C(=O)[C@H]([C@@H](C)O)NC(=O)[C@H]([C@H](O)[C@@H](O)c3ccc(O)cc3)NC(=O)[C@@H]3C[C@@H](O)CN3C(=O)[C@H]([C@@H](C)O)NC2=O)cc1 [drawing 115] ({Benzoyl(4-octyloxy)}-[Orn(4R-OH,5R-OH)]T[Hyp][hTyr(3S-OH,4S-OH)]T[Pro(3S-OH,4S-Me)]; lactam 1-C)
MIC (Candida albicans A-26 [1]): 0.156 μg/disc | MIC [2]: < 0.039 μg/disc

CCCCCCCCS(=O)(=O)c1ccc(C(=O)N[C@H]2C[C@@H](O)[C@@H](O)NC(=O)[C@@H]3[C@@H](O)[C@@H](C)CN3C(=O)[C@H]([C@@H](C)O)NC(=O)[C@H]([C@H](O)[C@@H](O)c3ccc(O)cc3)NC(=O)[C@@H]3C[C@@H](O)CN3C(=O)[C@H]([C@@H](C)O)NC2=O)cc1 [drawing 123] (X23-[Orn(4R-OH,5R-OH)]T[Hyp][hTyr(3S-OH,4S-OH)]T[Pro(3S-OH,4S-Me)]; lactam 1-C)
MIC (Candida albicans A-26 [1]): 20 μg/disc | MIC [2]: 0.312 μg/disc

CCCCCCCCCCCCCCS(=O)(=O)c1ccc(C(=O)N[C@H]2C[C@@H](O)[C@@H](O)NC(=O)[C@@H]3[C@@H](O)[C@@H](C)CN3C(=O)[C@H]([C@@H](C)O)NC(=O)[C@H]([C@H](O)[C@@H](O)c3ccc(O)cc3)NC(=O)[C@@H]3C[C@@H](O)CN3C(=O)[C@H]([C@@H](C)O)NC2=O)cc1 [drawing 126] (X2-[Orn(4R-OH,5R-OH)]T[Hyp][hTyr(3S-OH,4S-OH)]T[Pro(3S-OH,4S-Me)]; lactam 1-C)
MIC (Candida albicans A-26 [1]): 0.625 μg/disc | MIC [2]: 0.039 μg/disc

CCCCCCOc1ccc(C(=O)N[C@H]2C[C@@H](O)[C@@H](O)NC(=O)[C@@H]3[C@@H](O)[C@@H](C)CN3C(=O)[C@H]([C@@H](C)O)NC(=O)[C@H]([C@H](O)[C@@H](O)c3ccc(O)cc3)NC(=O)[C@@H]3C[C@@H](O)CN3C(=O)[C@H]([C@@H](C)O)NC2=O)cc1 [drawing 131] (X14-[Orn(4R-OH,5R-OH)]T[Hyp][hTyr(3S-OH,4S-OH)]T[Pro(3S-OH,4S-Me)]; lactam 1-C)
MIC (Candida albicans A-26 [1]): 2.5 μg/disc | MIC [2]: 0.312 μg/disc

CCCCOc1ccc(CCC(=O)N[C@H]2C[C@@H](O)[C@@H](O)NC(=O)[C@@H]3[C@@H](O)[C@@H](C)CN3C(=O)[C@H]([C@@H](C)O)NC(=O)[C@H]([C@H](O)[C@@H](O)c3ccc(O)cc3)NC(=O)[C@@H]3C[C@@H](O)CN3C(=O)[C@H]([C@@H](C)O)NC2=O)cc1 [drawing 134] (X17-[Orn(4R-OH,5R-OH)]T[Hyp][hTyr(3S-OH,4S-OH)]T[Pro(3S-OH,4S-Me)]; lactam 1-C)
MIC (Candida albicans A-26 [1]): 20 μg/disc | MIC [2]: 1.25 μg/disc

CCCCCCCCCCCCOc1ccc(CC(=O)N[C@H]2C[C@@H](O)[C@@H](O)NC(=O)[C@@H]3[C@@H](O)[C@@H](C)CN3C(=O)[C@H]([C@@H](C)O)NC(=O)[C@H]([C@H](O)[C@@H](O)c3ccc(O)cc3)NC(=O)[C@@H]3C[C@@H](O)CN3C(=O)[C@H]([C@@H](C)O)NC2=O)cc1 [drawing 142] (X18-[Orn(4R-OH,5R-OH)]T[Hyp][hTyr(3S-OH,4S-OH)]T[Pro(3S-OH,4S-Me)]; lactam 1-C)
MIC (Candida albicans A-26 [1]): 0.312 μg/disc | MIC [2]: 0.625 μg/disc

CCCCCCCCCCOc1ccc(C(=O)N[C@H]2C[C@@H](O)[C@@H](O)NC(=O)[C@@H]3[C@@H](O)[C@@H](C)CN3C(=O)[C@H]([C@@H](C)O)NC(=O)[C@H]([C@H](O)[C@@H](O)c3ccc(O)cc3)NC(=O)[C@@H]3C[C@@H](O)CN3C(=O)[C@H]([C@@H](C)O)NC2=O)cc1 [drawing 116] ({Benzoyl(4-OC10H21)}-[Orn(4R-OH,5R-OH)]T[Hyp][hTyr(3S-OH,4S-OH)]T[Pro(3S-OH,4S-Me)]; lactam 1-C)
MIC (Candida albicans A-26 [1]): 0.156 μg/disc | MIC [2]: < 0.078 μg/disc

CCCCCCCCOc1cccc(CC(=O)N[C@H]2C[C@@H](O)[C@@H](O)NC(=O)[C@@H]3[C@@H](O)[C@@H](C)CN3C(=O)[C@H]([C@@H](C)O)NC(=O)[C@H]([C@H](O)[C@@H](O)c3ccc(O)cc3)NC(=O)[C@@H]3C[C@@H](O)CN3C(=O)[C@H]([C@@H](C)O)NC2=O)c1 [drawing 141] (X15-[Orn(4R-OH,5R-OH)]T[Hyp][hTyr(3S-OH,4S-OH)]T[Pro(3S-OH,4S-Me)]; lactam 1-C)
MIC (Candida albicans A-26 [1]): 5 μg/disc | MIC [2]: 80 μg/disc

CCCCCCCCOc1ccc(CCC(=O)N[C@H]2C[C@@H](O)[C@@H](O)NC(=O)[C@@H]3[C@@H](O)[C@@H](C)CN3C(=O)[C@H]([C@@H](C)O)NC(=O)[C@H]([C@H](O)[C@@H](O)c3ccc(O)cc3)NC(=O)[C@@H]3C[C@@H](O)CN3C(=O)[C@H]([C@@H](C)O)NC2=O)cc1 [drawing 172] (X21-[Orn(4R-OH,5R-OH)]T[Hyp][hTyr(3S-OH,4S-OH)]T[Pro(3S-OH,4S-Me)]; lactam 1-C)
ED50 (Candida albicans A-26 [3]): 4.5 mg/kg

CCCCCCCCCCCCS(=O)(=O)c1ccc(C(=O)N[C@H]2C[C@@H](O)[C@@H](O)NC(=O)[C@@H]3[C@@H](O)[C@@H](C)CN3C(=O)[C@H]([C@@H](C)O)NC(=O)[C@H]([C@H](O)[C@@H](O)c3ccc(O)cc3)NC(=O)[C@@H]3C[C@@H](O)CN3C(=O)[C@H]([C@@H](C)O)NC2=O)cc1 [drawing 125] (X5-[Orn(4R-OH,5R-OH)]T[Hyp][hTyr(3S-OH,4S-OH)]T[Pro(3S-OH,4S-Me)]; lactam 1-C)
MIC (Candida albicans A-26 [1]): 0.625 μg/disc | MIC [2]: 0.078 μg/disc

CCCCCCCCCCCCSc1ccc(C(=O)N[C@H]2C[C@@H](O)[C@@H](O)NC(=O)[C@@H]3[C@@H](O)[C@@H](C)CN3C(=O)[C@H]([C@@H](C)O)NC(=O)[C@H]([C@H](O)[C@@H](O)c3ccc(O)cc3)NC(=O)[C@@H]3C[C@@H](O)CN3C(=O)[C@H]([C@@H](C)O)NC2=O)cc1 [drawing 121] (X1-[Orn(4R-OH,5R-OH)]T[Hyp][hTyr(3S-OH,4S-OH)]T[Pro(3S-OH,4S-Me)]; lactam 1-C)
MIC (Candida albicans A-26 [1]): 2.5 μg/disc | MIC [2]: < 0.039 μg/disc

CCCCCCCCS(=O)(=O)c1ccc(C(=O)N[C@H]2C[C@@H](O)[C@@H](O)NC(=O)[C@@H]3[C@@H](O)[C@@H](C)CN3C(=O)[C@H]([C@@H](C)O)NC(=O)[C@H]([C@H](O)[C@@H](O)c3ccc(O)cc3)NC(=O)[C@@H]3C[C@@H](O)CN3C(=O)[C@H]([C@@H](C)O)NC2=O)cc1 [drawing 159] (X23-[Orn(4R-OH,5R-OH)]T[Hyp][hTyr(3S-OH,4S-OH)]T[Pro(3S-OH,4S-Me)]; lactam 1-C)
ED50 (Candida albicans A-26 [3]): 57 mg/kg

CCCCCCCCCCCCOc1ccc(CCC(=O)N[C@H]2C[C@@H](O)[C@@H](O)NC(=O)[C@@H]3[C@@H](O)[C@@H](C)CN3C(=O)[C@H]([C@@H](C)O)NC(=O)[C@H]([C@H](O)[C@@H](O)c3ccc(O)cc3)NC(=O)[C@@H]3C[C@@H](O)CN3C(=O)[C@H]([C@@H](C)O)NC2=O)cc1 [drawing 173] (X22-[Orn(4R-OH,5R-OH)]T[Hyp][hTyr(3S-OH,4S-OH)]T[Pro(3S-OH,4S-Me)]; lactam 1-C)
ED50 (Candida albicans A-26 [3]): 4.5 mg/kg

CCCCCCCCCCS(=O)(=O)c1ccc(C(=O)N[C@H]2C[C@@H](O)[C@@H](O)NC(=O)[C@@H]3[C@@H](O)[C@@H](C)CN3C(=O)[C@H]([C@@H](C)O)NC(=O)[C@H]([C@H](O)[C@@H](O)c3ccc(O)cc3)NC(=O)[C@@H]3C[C@@H](O)CN3C(=O)[C@H]([C@@H](C)O)NC2=O)cc1 [drawing 160] (X4-[Orn(4R-OH,5R-OH)]T[Hyp][hTyr(3S-OH,4S-OH)]T[Pro(3S-OH,4S-Me)]; lactam 1-C)
ED50 (Candida albicans A-26 [3]): 57 mg/kg
